Here are results for 19 molecules from US9062013B2, “Positive allosteric modulators of the α7 nicotinic acetylcholine receptor and uses thereof” (Bionomics Limited, priority 2011, dated 2015).

Data set [1] deals with scopolamine treated mice. The data set is described as follows: T-maze Continuous Alternation Task (T-CAT), scopolamine-induced cognitive impairment. In kind it is in vivo. As to conditions: test compounds administered 60 min prior, scopolamine 20 min prior to the T-maze session. From the text:
Scopolamine is a muscarinic receptor antagonist which is used as a standard/reference drug for inducing cognitive deficits in healthy humans and animals.
The T-maze Continuous Alternation Task (T-CAT) measures spontaneous alternation, which is the innate tendency of mice to alternate free choices in a T-maze over a series of successive runs. This sequential procedure relies on working memory and is sensitive to various pharmacological manipulations affecting memory processes.
The T-maze apparatus is made of gray Plexiglas with a main stem (55 cm long×10 cm wide×25 cm high) and two arms (30 cm long×10 cm wide×25 cm high) positioned at 90 degree angle relative to the main stem. A start box (15 cm long×10 cm wide) is separated from the main stem by a sliding door. Sliding doors are also provided to close specific arms during the forced-choice alternation task.
The experimental protocol consists of one single session, which starts with 1 “forced-choice” trial, followed by 14 “free-choice” trials. In the first “forced-choice” trial, the animal is confined for 5 s in the start arm and then it is released while either the left or right goal arm is blocked by a sliding door. The animal will negotiate the maze, eventually enter the open goal arm, and return to the start position. Immediately after the return to the start position, the left or right goal door is opened and the animal is allowed to choose freely between the left and right goal arm (“free choice” trials). The animal is considered to have entered an arm when it places its four paws in the arm. A session is terminated and the animal is removed from the maze as soon as 14 free-choice trials have been performed or 10 min have elapsed, whichever event occurs first. The percentage of alternation over the 14 free-choice trials is determined for each mouse and is used as an index of working memory performance. This percentage is defined as entry in a different arm of the T-maze over successive visits (i.e., left-right-left-right, etc). Scopolamine administered 20 min prior the initiation of the 1-maze session is used to induce disruption in the spontaneous alternation of mice. Test compounds are administered 60 min prior the start of the T-maze session in order to evaluate their ability to reverse the scopolamine effect.
The apparatus is cleaned between each animal using alcohol (70°). Urine and feces are removed from the maze. During the trials, animal handling and the visibility of the operator are minimized as much as possible.

`Cc1cnc(NC(=O)[C@@H]2[C@@H](c3ccccc3)C2(C)C)s1` (relative stereo) [Example 1a, 2,2-Dimethyl-trans-N-(5-methylthiazol-2-yl)-3-phenylcyclopropanecarboxamide] returned a melting point of 132 to 135 °C.
As for `CC1(C)[C@H](C(=O)Nc2cc(C(F)(F)F)n[nH]2)[C@H]1c1ccccc1` (relative stereo) [Example 2a, 2,2-Dimethyl-trans-3-phenyl-N-(3-(trifluoromethyl)-1H-pyrazol-5-yl)cyclopropanecarboxamide], the melting point was in the range of 68 to 71 °C.
On to `CC1(C)[C@H](C(=O)Nc2cc(C(F)(F)F)n[nH]2)[C@H]1c1ccc(S(N)(=O)=O)cc1` (relative stereo) [Example 2b, 2,2-Dimethyl-trans-3-(4-sulfamoylphenyl)-N-(3-(trifluoromethyl)-1H-pyrazol-5-yl)cyclopropanecarboxamide], for which, in data set [1], the “improvement relative to the scopolamine treated mice (spontaneous alternation)” value is recorded as “significant improvement”.
In the case of `COc1cc(OC)c(NC(=O)[C@@H]2[C@@H](c3ccccc3)C2(C)C)cc1Cl` (relative stereo) [Example 3a, trans-N-(5-Chloro-2,4-dimethoxyphenyl)-2,2-dimethyl-3-phenylcyclopropanecarboxamide], the melting point was in the range of 160 to 162 °C.
`COc1ccc(Cl)cc1NC(=O)[C@@H]1[C@@H](c2ccccc2)C1(C)C` (relative stereo) [Example 4a, trans-N-(5-Chloro-2-methoxyphenyl)-2,2-dimethyl-3-phenylcyclopropanecarboxamide] displayed a melting point of 155 to 157 °C.
In the case of `COc1ccc(Cl)cc1NC(=O)[C@@H]1[C@@H](c2ccc(S(N)(=O)=O)cc2)C1(C)C` (relative stereo) [Example 4b, trans-N-(5-Chloro-2-methoxyphenyl)-2,2-dimethyl-3-(4-sulfamoylphenyl)cyclopropanecarboxamide], the “improvement relative to the scopolamine treated mice (spontaneous alternation)” value in data set [1] is given as “significant improvement”.
With `COc1ccc(Cl)cc1NC(=O)[C@@H]1[C@@H](c2ccc(Cl)cc2)C1(C)C` (relative stereo) [Example 5a, trans-N-(5-Chloro-2-methoxyphenyl)-3-(4-chlorophenyl)-2,2-dimethylcyclopropanecarboxamide], the melting point was in the range of 162 to 164 °C. Further, the “improvement relative to the scopolamine treated mice (spontaneous alternation)” value in data set [1] is on record as “significant improvement”.
In the case of `COc1ccc(Cl)cc1NC(=O)[C@@H]1[C@@H](c2ccc(S(N)(=O)=O)cc2)C12CCCC2` (relative stereo) [Example 6b, trans-N-(5-Chloro-2-methoxyphenyl)-2-(4-sulfamoylphenyl)spiro[2.4]heptane-1-carboxamide], in data set [1], the “improvement relative to the scopolamine treated mice (spontaneous alternation)” value was “significant improvement”.
`COc1ccc(NC(=O)[C@@H]2[C@@H](c3ccccc3)C23CCCC3)c(OC)n1` (relative stereo) [Example 8a, trans-N-(2,6-dimethoxypyridin-3-yl)-2-phenylspiro[2.4]heptane-1-carboxamide] showed a melting point of 131 to 133 °C.
The same measure, in the same setting: next, `O=C(Nc1ccc(C(F)(F)F)cc1)[C@@H]1[C@@H](c2ccccc2)C12CCCC2` (relative stereo) [Example 9a, trans-2-phenyl-N-(4-(trifluoromethyl)phenyl)spiro[2.4]heptane-1-carboxamide]: 171 to 173 °C.
For `NS(=O)(=O)c1ccc([C@@H]2[C@@H](C(=O)Nc3ccc(C(F)(F)F)cc3)C23CCCC3)cc1` (relative stereo) [Example 9b, trans-2-(4-sulfamoylphenyl)-N-(4-(trifluoromethyl)phenyl)spiro[2.4]heptane-1-carboxamide], the “improvement relative to the scopolamine treated mice (spontaneous alternation)” value in data set [1] is given as “significant improvement”.
For the molecule `CC1(C)[C@H](C(=O)Nc2ccncc2)[C@H]1c1ccc(S(N)(=O)=O)cc1` (relative stereo) [Example 10b, 2,2-Dimethyl-trans-N-(pyridin-4-yl)-3-(4-sulfamoylphenyl)cyclopropanecarboxamide], the “improvement relative to the scopolamine treated mice (spontaneous alternation)” value in data set [1] is “significant improvement”.
The molecule `COc1ccc(Cl)cc1NC(=O)[C@@H]1[C@@H](c2ccc(Br)cc2)C1(C)C` (relative stereo) [Example 12c, trans-N-(5-Chloro-2-methoxyphenyl)-3-(4-bromophenyl)-2,2-dimethylcyclopropanecarboxamide] displayed a melting point of 170 to 172 °C.
Same read-out and setting: as for `COc1ncccc1NC(=O)[C@@H]1[C@@H](c2ccccc2)C1(C)C` (relative stereo) [Example 13a, trans-N-(2-methoxypyridin-3-yl)-2,2-dimethyl-3-phenylcyclopropanecarboxamide], the figure is 152 to 154 °C; as for `O=C(Nc1ccc(C(F)(F)F)cc1Cl)[C@@H]1[C@@H](c2ccccc2)C12CCCC2` (relative stereo) [Example 15a, trans-2-phenyl-N-[2-chloro-4-(trifluoromethyl)phenyl]spiro[2.4]heptane-1-carboxamide], 131 to 133 °C.
Turning to `Cc1cccc([C@@H]2[C@@H](C(=O)Nc3ccc(F)c(F)c3)C2(C)C)c1` (relative stereo) [Example 16d, trans-N-(3,4-Difluoro-phenyl)-2,2-dimethyl-3-m-tolyl-cyclopropanecarboxamide], the melting point fell in the range of 110 to 113 °C.
On the same count and under the same terms, next, `COc1ccc(Cl)cc1NC(=O)[C@@H]1[C@@H](c2cccc(C)c2)C1(C)C` (relative stereo) [Example 17a, trans-N-(5-Chloro-2-methoxyphenyl)-2,2-dimethyl-3-m-tolyl-cyclopropanecarboxamide]: 148 to 150 °C; `COc1ccc(Cl)cc1NC(=O)[C@@H]1[C@@H](c2ccc3c(c2)OC(F)(F)O3)C1(C)C` (relative stereo) [Example 18d, trans-N-(5-Chloro-2-methoxyphenyl)-3-(2,2-difluoro-benzo[1,3]dioxol-5-yl)-2,2-dimethyl-cyclopropane carboxamide]: 120 to 122 °C; `COc1ccc(Cl)cc1NC(=O)[C@@H]1[C@@H](c2ccccc2)C12CCCC2` [Example 6a, trans-N-(5-Chloro-2-methoxyphenyl)-2-phenylspirol[2.4]heptane-1-carboxamide]: 133 to 135 °C.

As a reminder, the melting point is the temperature of the solid-liquid transition.
